Data taken from PubChem BioAssay (NCI).
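Five concentrations, 48 hours, 96-well plates. The concentration for 50% growth inhibition is given as GI50. TGI marks complete inhibition of growth.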

What was measured:
Test in all cases: NCI anticancer screen, dose series, 48 h
[1] = test system: HCT-15 colon
[2] = test system: HOP-62 NSCLC
[3] = test system: HS 578T breast
[4] = test system: M14 melanoma
[5] = test system: IGROV1 ovarian
[6] = test system: EKVX NSCLC
[7] = test system: U251 CNS
[8] = test system: HCC-2998 colon
[9] = test system: SNB-75 CNS
[10] = test system: LOX IMVI melanoma
[11] = test system: OVCAR-4 ovarian
[12] = test system: MDA-MB-231 breast
[13] = test system: NCI-H522 lung
[14] = test system: SK-MEL-5 melanoma
[15] = test system: RPMI-8226 leukemia
[16] = test system: ACHN renal
[17] = test system: SK-MEL-2 melanoma
[18] = test system: SNB-19 CNS
[19] = test system: HL-60(TB) leukemia
[20] = test system: NCI-H460 lung
[21] = test system: RXF 393 renal
[22] = test system: MCF7 breast
[23] = test system: SK-OV-3 ovarian
[24] = test system: A498 renal
[25] = test system: NCI-H226 lung
[26] = test system: MDA-MB-435
[27] = test system: COLO 205 colon
[28] = test system: UACC-257 melanoma
[29] = test system: HOP-92 NSCLC
[30] = test system: HT29 colon
[31] = test system: SF-268 CNS
[32] = test system: T-47D breast
[33] = test system: SW-620 colon
[34] = test system: OVCAR-8 ovarian
[35] = test system: SN12C renal
[36] = test system: HCT-116 colon
[37] = test system: UACC-62 melanoma
[38] = test system: CCRF-CEM leukemia
[39] = test system: NCI-H23 lung
[40] = test system: K-562 leukemia
[41] = test system: NCI/ADR-RES ovarian
[42] = test system: A549 NSCLC
[43] = test system: DU-145 prostate
[44] = test system: MALME-3M melanoma
[45] = test system: OVCAR-5 ovarian
[46] = test system: 786-0 renal
[47] = test system: KM12 colon
[48] = test system: SF-539 CNS
[49] = test system: CAKI-1 renal
[50] = test system: PC-3 prostate
[51] = test system: UO-31 renal
[52] = test system: TK-10 renal
[53] = test system: OVCAR-3 ovarian
[54] = test system: MOLT-4 leukemia
[55] = test system: BT-549 breast
[56] = test system: SF-295 CNS
[57] = test system: SK-MEL-28 melanoma

O=C(Nc1ccncc1)C(=O)c1cn(S(=O)(=O)c2ccccc2F)c2ccccc12
GI50 [1]: 0.546 µM | TGI [1]: > 100 µM | GI50 [2]: 1.96 µM | TGI [2]: 34.3 µM | GI50 [3]: 5.27 µM | TGI [3]: > 100 µM | GI50 [4]: 0.979 µM | TGI [4]: > 100 µM | GI50 [5]: 3.83 µM | TGI [5]: > 100 µM | GI50 [6]: 3.72 µM | TGI [6]: > 100 µM | GI50 [7]: 1.89 µM | TGI [7]: 34.3 µM | GI50 [8]: 5.36 µM | TGI [8]: > 100 µM | GI50 [9]: 1.65 µM | TGI [9]: 18 µM | TGI [10]: > 100 µM | GI50 [11]: 3.59 µM | TGI [11]: > 100 µM | GI50 [12]: 3.97 µM | TGI [12]: 64.9 µM | GI50 [13]: 0.371 µM | TGI [13]: 4.09 µM | GI50 [14]: 0.693 µM | TGI [14]: 16.2 µM | GI50 [15]: 2.54 µM | TGI [15]: > 32.7 µM | GI50 [16]: 5.21 µM | TGI [16]: > 70.9 µM | GI50 [17]: 5.2 µM | TGI [17]: > 57.8 µM | GI50 [18]: 7.17 µM | TGI [18]: > 80.4 µM | GI50 [19]: 0.576 µM | GI50 [20]: 6.75 µM | TGI [20]: > 100 µM | GI50 [21]: 2.44 µM | TGI [21]: 9.18 µM | GI50 [22]: 0.547 µM | TGI [22]: 27.5 µM | GI50 [23]: 12 µM | TGI [23]: 36.6 µM | GI50 [24]: 5.47 µM | TGI [24]: 63.3 µM | GI50 [25]: 6.93 µM | TGI [25]: > 68.6 µM | GI50 [26]: 0.188 µM | TGI [26]: 0.695 µM | GI50 [27]: 23.6 µM | TGI [27]: > 100 µM | GI50 [28]: 5.51 µM | TGI [28]: > 78.4 µM | GI50 [29]: 2.93 µM | TGI [29]: 60.2 µM | GI50 [30]: 0.45 µM | TGI [30]: > 31.9 µM | GI50 [31]: 2.32 µM | TGI [31]: > 79.3 µM | GI50 [32]: 2.53 µM | TGI [32]: > 87.1 µM | GI50 [33]: 1.44 µM | TGI [33]: > 100 µM | GI50 [34]: 2.7 µM | TGI [34]: 52.4 µM | GI50 [35]: 2.65 µM | TGI [35]: > 90.6 µM | GI50 [36]: 0.504 µM | TGI [36]: > 37.8 µM | GI50 [37]: 0.708 µM | TGI [37]: > 36.4 µM | GI50 [38]: 4.35 µM | TGI [38]: > 100 µM | GI50 [39]: 0.965 µM | TGI [39]: > 34.8 µM | GI50 [40]: 1.37 µM | TGI [40]: > 100 µM | GI50 [41]: 0.579 µM | TGI [41]: > 100 µM | GI50 [42]: 13.5 µM | TGI [42]: 59.8 µM | GI50 [43]: 3.48 µM | TGI [43]: 18.5 µM | GI50 [44]: 1.65 µM | TGI [44]: > 100 µM | GI50 [45]: 5.38 µM | TGI [45]: 98.2 µM | GI50 [46]: 4.95 µM | TGI [46]: 40.9 µM | GI50 [47]: 0.837 µM | TGI [47]: > 100 µM | GI50 [48]: 1.19 µM | TGI [48]: 7.88 µM | GI50 [49]: 2.43 µM | TGI [49]: > 70.8 µM | GI50 [50]: 2.35 µM | TGI [50]: > 68.5 µM | GI50 [51]: 3.66 µM | TGI [51]: > 95 µM | GI50 [52]: 9.71 µM | TGI [52]: > 49.3 µM | GI50 [53]: 0.893 µM | TGI [53]: 6.85 µM | GI50 [54]: 3.45 µM | TGI [54]: > 45.7 µM | GI50 [55]: 4.41 µM | TGI [55]: 54.8 µM | GI50 [56]: 2.11 µM | TGI [56]: 10.2 µM | GI50 [57]: 3.59 µM | TGI [57]: 49.1 µM
